In patent US9428542B2, “Lupane triterpenoid derivatives and pharmaceutical use thereof” (priority 2012, dated 2016):

Columns and labels:
HIV-1IIIB = test: HIV-1 full replication assay (HIV-1IIIB-infected MT-2 cells, supernatant read out on TZM-bl cells, β-Gal); type: cell-based; details: Human immunodeficiency virus 1, MT2, 72 h, inhibiting HIV-1IIIB replication in MT-2 cells, 3 days; read-out: IC50 (PM)
Protocol: The antiviral activity of the compounds of the present invention was determined in a HIV-1 full replication assay.
In this assay, MT-2 cells that are infected with HIV-1IIIB were co-cultured with different concentration of the tested compounds for 3 days and then supernatant is transferred into new 384-well plates containing TZM-bl cells (also called JC53-bl). TZM-bl cells that could be infected by various kinds of HIV-1 strains stably express a great amount of HIV-1 receptor, co-receptor CD4 molecular, and co-receptor CXCR4 and CCR5. TZM-bl cells harbor LTR-luciferase and β-gal two report genes. The expression of luciferase and β-gal reporter directed by HIV-1 LTR can be activated by Tat protein generated after HIV infection, and the quantity of expression is proportional to the quantity of HIV-1. Compounds that interfere with virus replication in MT-2 cells, maturation of the virus, or post-entry steps in the HIV lifecycle decrease the luciferase signal or β-gal signal. In this experiment, BVM (Bevirimat, PA-457) is used as a positive control drug.
Method for Inhibiting HIV-1 Replication Assay:
The MT-2 cells are infected at a Multiciplicity (MOI) of 0.01 TCID50, and then the MT-2 cells suspension was diluted to a needed concentration. 90 μl of the MT-2 cells suspension from above was added into 384-well plates containing 10 μl of the tested compounds.
Compounds were dissolved in DMSO and tested as 11 points 3-fold serial dilutions. After addition of cells to compound plates, plates were placed to humidified 5% CO2 37 incubator for 3 days. 10 μl of cells culture supernatant from the incubated plates was transferred into new black 384-well plates.
Adjusted the TZMb1 cells concentration and 40 μl of TZMb1 cells was added into each well in the black 384-well plates. After addition of the TZMb1 cells to the black plates, black plates were placed to humidified 5% CO2 37 incubator for 24 h, then β-Gal activity was measured.
The anti viral activity %=(measured number-lowest mean number)/(highest mean number-lowest mean number)×100. The IC50 values were calculated by Median Equation and the IC curve was generated by Graphpad Prism V 5.03.
(§1) TC50 is referred to the toxicity in MT-2 cells by the compounds tested at 50% concentration; IC50 is referred to the inhibiting HIV-1IIIB replication in MT-2 cells by the compounds tested at 50% concentration; Therapeutic Index (TI)=TC50/IC50.

MT-2 cells = test: Compounds' cytotoxicity assay in MT-2 cells (CellTiter-Glo); type: cell-based; set-up: unit not given here; details: toxicity in MT-2 cells, 3 days
Protocol: 3. Method for Compounds' Cytotoxicity Assay:
The MT-2 cells are diluted to a needed concentration. 90 μl of the MT-2 cells suspension was added into 384-well plates containing 10 μl of the tested compounds. Compounds were dissolved in DMSO and tested as 11 points 3-fold serial dilutions. After addition of cells to compound plates, plates were placed to humidified 5% CO2 37 incubator for 3 days. The Luciferase activity was measured by CellTiter-Glo® Luminescent Cell Viability Assay kit (Promega Corp., WI, USA).
as §1

SMILES | IC50 (HIV-1IIIB) | TC50 (PM) (MT-2 cells)
CC(C)C1=C2[C@H]3CC[C@@H]4[C@@]5(C)CC[C@H](OC(=O)CC(C)(C)C(=O)O)C(C)(C)[C@@H]5CC[C@@]4(C)[C@]3(C)CC[C@@]2(c2nnc(-c3ccc(Cl)cc3)s2)CC1=O [Compound 102] | 175 nM | 9.93
CC(C)C1=C2[C@H]3CC[C@@H]4[C@@]5(C)CC[C@H](OC(=O)CC(C)(C)C(=O)O)C(C)(C)[C@@H]5CC[C@@]4(C)[C@]3(C)CC[C@@]2(Cc2nnc(-c3ccc(C(F)(F)F)cn3)o2)CC1=O [Compound 22-12] | 0.4 nM | 31
CC(C)C1=C2[C@H]3CC[C@@H]4[C@@]5(C)CC[C@H](OC(=O)CC(C)(C)C(=O)O)C(C)(C)[C@@H]5CC[C@@]4(C)[C@]3(C)CC[C@@]2(c2cc(=O)n(-c3ccc(Cl)cc3)n2C)CC1=O [Compound 98-1] | 1.6 nM | 24
CC(C)C1=C2[C@H]3CC[C@@H]4[C@@]5(C)CC[C@H](OC(=O)CC(C)(C)C(=O)O)C(C)(C)[C@@H]5CC[C@@]4(C)[C@]3(C)CC[C@@]2([C@@H](O)c2nnc(-c3ncc(Cl)cn3)o2)CC1=O [Compound 127-5] | 1 nM | 38
CC(C)C1=C2[C@H]3CC[C@@H]4[C@@]5(C)CC[C@H](OC(=O)CC(C)(C)C(=O)O)C(C)(C)[C@@H]5CC[C@@]4(C)[C@]3(C)CC[C@@]2([C@H](O)c2nnc(-c3ccc(Cl)cn3)o2)CC1=O [Compound 127-4] | 38 nM | 200
CC(C)C1=C2[C@H]3CC[C@@H]4[C@@]5(C)CC[C@H](OC(=O)CC(C)(C)C(=O)O)C(C)(C)[C@@H]5CC[C@@]4(C)[C@]3(C)CC[C@@]2(c2ncc(-c3ccc(Cl)cc3)o2)CC1=O [Compound 65] | 58 nM | 17.68
CC(C)C1=C2[C@H]3CC[C@@H]4[C@@]5(C)CC[C@H](OC(=O)CC(C)(C)C(=O)O)C(C)(C)[C@@H]5CC[C@@]4(C)[C@]3(C)CC[C@@]2(Cc2nnc(-c3ncc(Cl)cn3)o2)CC1=O [Compound 22-16] | 0.48 nM | 39
CC(C)C1=C2[C@H]3CC[C@@H]4[C@@]5(C)CC[C@H](OC(=O)CC(C)(C)C(=O)O)C(C)(C)[C@@H]5CC[C@@]4(C)[C@]3(C)CC[C@@]2(c2cc(=O)n(-c3ccc(Cl)cc3)n2C)CC1 [Compound 96-1] | 33 nM | 17
COc1ccc(-c2nnc(C[C@@]34CC[C@]5(C)[C@H](CC[C@@H]6[C@@]7(C)CC[C@H](OC(=O)CC(C)(C)C(=O)O)C(C)(C)[C@@H]7CC[C@]65C)C3=C(C(C)C)C(=O)C4)o2)nc1 [Compound 22-17] | 2.8 nM | 200
CC(C)C1=C2[C@H]3CC[C@@H]4[C@@]5(C)CC[C@H](OC(=O)CC(C)(C)C(=O)O)C(C)(C)[C@@H]5CC[C@@]4(C)[C@]3(C)CC[C@@]2(c2cc(=O)n(Cc3ccc(Cl)cn3)n2C)CC1=O [Compound 91-9] | ≤ 0.17 nM | 26
CC(C)C1=C2[C@H]3CC[C@@H]4[C@@]5(C)CC[C@H](OC(=O)CC(C)(C)C(=O)O)C(C)(C)[C@@H]5CC[C@@]4(C)[C@]3(C)CC[C@@]2(c2nnc(-c3ccc(Cl)cc3)o2)CC1=O [Compound 27-1] | 3.3 nM | 50
CC(C)C1=C2[C@H]3CC[C@@H]4[C@@]5(C)CC[C@H](OC(=O)CC(C)(C)C(=O)O)C(C)(C)[C@@H]5CC[C@@]4(C)[C@]3(C)CC[C@@]2(c2nnc(-c3ncc(Cl)cn3)o2)CC1=O [Compound 27-14] | 4.9 nM | 46
CC(C)C1=C2[C@H]3CC[C@@H]4[C@@]5(C)CC[C@H](OC(=O)CC(C)(C)C(=O)O)C(C)(C)[C@@H]5CC[C@@]4(C)[C@]3(C)CC[C@@]2(Nc2nnc(-c3ncc(Cl)cn3)o2)CC1=O [Compound 141-3] | 1.7 nM | 22
CC(C)C1=C2[C@H]3CC[C@@H]4[C@@]5(C)CC[C@H](OC(=O)CC(C)(C)C(=O)O)C(C)(C)[C@@H]5CC[C@@]4(C)[C@]3(C)CC[C@@]2(Cc2nnc(-c3cccnc3)o2)CC1=O [Compound 22-9] | 4.3 nM | 33
CC(C)C1=C2[C@H]3CC[C@@H]4[C@@]5(C)CC[C@H](OC(=O)CC(C)(C)C(=O)O)C(C)(C)[C@@H]5CC[C@@]4(C)[C@]3(C)CC[C@@]2(Cc2nnc(-c3ccc(Cl)cc3)n2CCN(C)C)CC1=O [Compound 116-1] | ≤ 0.17 nM | 35
CC(C)C1=C2[C@H]3CC[C@@H]4[C@@]5(C)CC[C@H](OC(=O)CC(C)(C)C(=O)O)C(C)(C)[C@@H]5CC[C@@]4(C)[C@]3(C)CC[C@@]2(c2cc(=O)n(-c3ccc(F)cc3)n2C)CC1=O [Compound 98-3] | 0.46 nM | 42
CC(C)C1=C2[C@H]3CC[C@@H]4[C@@]5(C)CC[C@H](OC(=O)CC(C)(C)C(=O)O)C(C)(C)[C@@H]5CC[C@@]4(C)[C@]3(C)CC[C@@]2(c2cc(=O)n(CC(N)=O)n2C)CC1=O [Compound 91-6] | 2 nM | 48
COc1ccc(-n2c(=O)cc([C@@]34CC[C@]5(C)[C@H](CC[C@@H]6[C@@]7(C)CC[C@H](OC(=O)CC(C)(C)C(=O)O)C(C)(C)[C@@H]7CC[C@]65C)C3=C(C(C)C)C(=O)C4)n2C)cn1 [Compound 98-2] | 3 nM | 44
CC(C)C1=C2[C@H]3CC[C@@H]4[C@@]5(C)CC[C@H](OC(=O)CC(C)(C)C(=O)O)C(C)(C)[C@@H]5CC[C@@]4(C)[C@]3(C)CC[C@@]2(Cc2nnc(-c3ccc(Cl)cc3F)o2)CC1=O [Compound 22-13] | 1.7 nM | 35
CC(C)C1=C2[C@H]3CC[C@@H]4[C@@]5(C)CC[C@H](OC(=O)CC(C)(C)C(=O)O)C(C)(C)[C@@H]5CC[C@@]4(C)[C@]3(C)CC[C@@]2(c2nnc(-c3ccccc3)o2)CC1=O [Compound 27-2] | 2 nM | 100
CC(C)C1=C2[C@H]3CC[C@@H]4[C@@]5(C)CC[C@H](OC(=O)CC(C)(C)C(=O)O)C(C)(C)[C@@H]5CC[C@@]4(C)[C@]3(C)CC[C@@]2(c2nnc(Nc3ccc(Cl)cc3)o2)CC1=O [Compound 133-1] | 10 nM | 21
CC(C)C1=C2[C@H]3CC[C@@H]4[C@@]5(C)CC[C@H](OC(=O)CC(C)(C)C(=O)O)C(C)(C)[C@@H]5CC[C@@]4(C)[C@]3(C)CC[C@@]2(c2nnc(-c3ccc(Cl)cn3)o2)CC1=O [Compound 27-3] | 1.5 nM | 36
CC(C)C1=C2[C@H]3CC[C@@H]4[C@@]5(C)CC[C@H](OC(=O)CC(C)(C)C(=O)O)C(C)(C)[C@@H]5CC[C@@]4(C)[C@]3(C)CC[C@@]2(c2nnc(-c3ccc(C(F)(F)F)cn3)o2)CC1=O [Compound 27-11] | 25 nM | 23
CC(C)C1=C2[C@H]3CC[C@@H]4[C@@]5(C)CC[C@H](OC(=O)CC(C)(C)C(=O)O)C(C)(C)[C@@H]5CC[C@@]4(C)[C@]3(C)CC[C@@]2(Cc2nnc(-c3ccc(Cl)cc3)o2)CC1=O [Compound 22-1] | 3.3 nM | 46
CC(C)C1=C2[C@H]3CC[C@@H]4[C@@]5(C)CC[C@H](OC(=O)CC(C)(C)C(=O)O)C(C)(C)[C@@H]5CC[C@@]4(C)[C@]3(C)CC[C@@]2(c2nnc(-c3ccncc3)o2)CC1=O [Compound 27-13] | 17 nM | 200
